For series [1], the system named is 5-HT-induced contractions in guinea pig ileum. Kind of series: Inhibition of 5-HT-induced contractions in guinea pig ileum (Assay 3). To be noted: Cavia porcellus, 5-HT 2.6 μM, read-out: Inhibition of 5-HT-induced contraction (%). Summed up: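 Isolated male guinea pig ileum strips in Krebs at 32° C, pH 7.4, 1 g resting tension, isotonic recording. Contraction to test compound (3 and 30 μM) alone recorded, then inhibition of responses to histamine 1.7 μM or 5-HT 2.6 μM (~EC60-70, 5 min) measured in its continued presence.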

For a further series, the system named is WI-38 cells. Kind of series: Viability of WI-38 cells, Alamar Blue (Assay 5). The class given is cell-based, human. Summed up: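 WI-38 fibroblasts stimulated overnight at 37 °C with 1 nM IL-1α plus test compound at 3 and 30 μM in MEM with 10% FBS, pH 7.3; released PGE2 in supernatant quantified by radioimmunoassay as percent inhibition. Viability then checked by Alamar Blue, 4 h at 37 °C, fluorescence ex 530/em 590 nm.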

The target of another series is TRPV1 receptor (Rattus norvegicus, UniProt O35433). Kind of series: TRPV1 modulation in DRG neurones: CGRP release in absence and presence of capsaicin (Assay 2). The class given is cell-based. Details: The culture used for this experiment contained sensory neurones, Schwann cells and fibroblasts; endogenous in cells; host or cells: primary rat DRG sensory neurone culture (with Schwann cells and fibroblasts). The following applies: 20 min; for inhibition at 3 µM: 3 μM with capsaicin 1 μM; for inhibition at 3 µM / inhibition at 30 µM: −ve: inhibition, +ve: potentiation of capsaicin response, read-out: Effect of test compounds on capsaicin (1 μM)-induced CGRP release (%); for inhibition at 30 µM: 30 μM with capsaicin 1 μM; for Emax at 3 µM: test compound alone 3 μM; for Emax at 3 µM / Emax at 30 µM: rat DRG sensory neurones, read-out: CGRP release (% of capsaicin (1 μM) response); for Emax at 30 µM: test compound alone 30 μM.
Chain of TRPV1 receptor (O35433 whole entry): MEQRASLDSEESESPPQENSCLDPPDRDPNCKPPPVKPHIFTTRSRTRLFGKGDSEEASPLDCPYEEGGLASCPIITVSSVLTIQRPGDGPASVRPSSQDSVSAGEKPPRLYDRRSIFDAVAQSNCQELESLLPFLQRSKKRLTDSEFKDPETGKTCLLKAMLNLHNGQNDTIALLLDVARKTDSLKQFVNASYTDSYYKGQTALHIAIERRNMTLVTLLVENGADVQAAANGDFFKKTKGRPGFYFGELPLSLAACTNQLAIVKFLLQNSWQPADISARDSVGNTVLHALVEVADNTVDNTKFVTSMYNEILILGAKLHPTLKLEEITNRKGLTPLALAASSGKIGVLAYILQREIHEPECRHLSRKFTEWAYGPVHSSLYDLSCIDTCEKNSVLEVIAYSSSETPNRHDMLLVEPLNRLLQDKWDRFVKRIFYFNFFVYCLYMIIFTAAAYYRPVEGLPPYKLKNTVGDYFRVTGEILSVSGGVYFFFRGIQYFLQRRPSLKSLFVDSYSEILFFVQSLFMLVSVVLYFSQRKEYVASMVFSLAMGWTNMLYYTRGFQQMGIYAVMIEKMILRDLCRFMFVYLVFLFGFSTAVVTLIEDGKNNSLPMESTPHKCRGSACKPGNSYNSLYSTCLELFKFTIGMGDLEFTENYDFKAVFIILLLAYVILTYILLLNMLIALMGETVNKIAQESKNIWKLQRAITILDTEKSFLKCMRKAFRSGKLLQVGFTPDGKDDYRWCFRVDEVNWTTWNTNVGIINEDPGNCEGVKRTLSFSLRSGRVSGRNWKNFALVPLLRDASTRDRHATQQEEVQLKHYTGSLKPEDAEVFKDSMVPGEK

Series [2] deals with ovalbumin-sensitised mice. As to the kind of experiment: Ovalbumin-sensitised mice, a chronic model of asthma in vivo (Assay 8). To be noted: for methacholine-induced increase in penH (enhanced pause) / Increase in penH: day 54; for methacholine-induced increase in penH (enhanced pause): methacholine challenge 50 mg/kg; for methacholine-induced increase in penH (enhanced pause) / eosinophil infiltration into the lung / IL-13 concentrations in the BAL / amount of lung remodelling (histopathology grading): oral gavage 20 days: compound 2 3, compound 32 30, budesonide 1, montelukast 10 mg/kg/day; for eosinophil infiltration into the lung: day 55, BAL cytospins; for Eosinophil infiltration / IL-4 concentration / IL-13 concentration / Histopathology score / Increase in penH: mean ± s.e.mean, oral gavage 20 days: 2 3 mg/kg/day, 32 30 mg/kg/day, budesonide 1 mg/kg/day, montelukast 10 mg/kg/day; for Eosinophil infiltration / IL-4 concentration / IL-13 concentration: BAL fluid day 55; for Eosinophil infiltration: sensitised 192.1 ± 33.2; for IL-4 concentration: sensitised 231.2 ± 62.4; for IL-13 concentration: sensitised 241.9 ± 89.3; for Histopathology score: lung remodelling, sensitised 541.6 ± 36.1; for Increase in penH: methacholine challenge, sensitised 193.0 ± 61.7. On the procedure: Mice (BALB/c from Harlan-Olac) were sensitised to ovalbumin using two interperitoneal injections of ovalbumin (10 μg) and alum (200 μl) on day 1 and 14 followed by a 20 min, daily exposure to a ovalbumin aerosol (5%) on days 19-23 and then a thrice weekly 20 min, exposure to a ovalbumin aerosol (5%) on days 24-55. […] On day 54, mice were placed in BUXCO four chamber whole body plethysmographs and breathing-associated pressure changes were recorded which were then used to calculate enhanced pause (penH), a measurement of airways resistance, in response to a methacholine challenge.
On day 55 the mice were killed and brochoalveolar lavage (BAL) fluid was collected and cytospins prepared to measure eosinophil infiltration. In addition, concentrations of interleukin-4 (IL-4) and interleukin-13 (IL-13) were measured in the BAL fluid. Furthermore, lung samples were taken, examined by a histopathologist and scored using a grading system to describe the degree of lung remodelling.

The subject of series [3] is ovalbumin-sensitised guinea pigs. As to the kind of experiment: Ovalbumin-sensitised guinea pigs, a model of asthma in vivo (Assay 7). To be noted: oral gavage 30 mg/kg/day for 7 days. Further details: species or system guinea pig. On the procedure:
Dunkin-Hartley guinea pigs were sensitised to ovalbumin using two interperitoneal injections of ovalbumin (20 μg) in Al(OH)3 gel (1.65 mg) on days 1 and 11. On day 25 compound 2 was administered by oral gavage (30 mg/kg/day) for 7 days. On day 31, approximately 2 h after the last administration of compound 2, each guinea pig was anaesthetised with urethane (1750 mg/kg, i.p.) and artificially ventilated via a tracheal cannula connected to a Fleisch pneumotachograph (size 00) and a differential pressure transducer (±2 cm H2O; PT5, Grass Astro-Med Inc., USA). Total pulmonary resistance (RL) was calculated online by integration of flow, tidal volume and transpulmonary pressure. Pulmonary resistance was recorded for approximately 5 min before ovalbumin (300 μg/ml, i.v) challenge and for approximately 15 min following ovalbumin challenge and was recorded in real time using a computer data acquisition system (Po-ne-Mah, USA).

For `COc1cc(CCC(=O)CC(=O)c2ccccc2)ccc1O` [Compound 69, 5-(4-Hydroxy-3-methoxyphenyl)-1-phenyl-pentane-1,3-dione], in series [1], the inhibition at 3 µM came to 9% and the inhibition at 30 µM amounted to 63%. Further, the “Decrease in cell viability (%)” value in the series with WI-38 cells (3 μM) is listed as 3%. Moreover, the “Decrease in cell viability (%)” value with WI-38 cells (30 μM) was 4%. Moreover, at TRPV1 receptor, the inhibition at 3 µM is -49%, the inhibition at 30 µM was determined as 23%, the Emax at 3 µM was found to be 49% and the Emax at 30 µM was determined as 36%.
`COc1cc(CCC(=O)C(C)C(=O)c2ccccc2)ccc1O` (stereo not shown) [Compound 11, 5-(4-Hydroxy-3-methoxy-phenyl)-2-methyl-1-phenyl-pentane-1,3-dione]: in series [1], the inhibition at 3 µM amounted to 0% and the inhibition at 30 µM turned out to be 53%. In addition, the “Decrease in cell viability (%)” value in the series with WI-38 cells (3 μM) was 1%. The “Decrease in cell viability (%)” value with WI-38 cells (30 μM) is −7%. Also, at TRPV1 receptor, the inhibition at 3 µM is 8%, the inhibition at 30 µM came to 12%, the Emax at 3 µM was 24% and the Emax at 30 µM came out at 111%.
Turning to `COc1cc(CCC(=O)C(C)(C)C(=O)c2ccccc2)ccc1O` [Compound 32, 2,2-Dimethyl-5-(4-hydroxy-3-methoxy-phenyl)-1-phenyl-pentane-1,3-dione], in series [1], the inhibition at 3 µM was found to be 9% and the inhibition at 30 µM turned out to be 93%. Moreover, the “Decrease in cell viability (%)” value in the series on WI-38 cells (3 μM) is −4%. For the same molecule, the “Decrease in cell viability (%)” value with WI-38 cells (30 μM) was −3%. In series [2], the “methacholine-induced increase in penH (enhanced pause)” value is listed as “decreased”, the “eosinophil infiltration into the lung” value is “reduced”, the Eosinophil infiltration is recorded as 106.6 ± 19.9% of control and the IL-4 concentration was 168.0 ± 50.8% of control. Moreover, in series [2], the IL-13 concentration is reported as 148.7 ± 88.4% of control and the “Increase in penH” value is recorded as 153.5 ± 29.0% of control. Besides, in series [2] (day 55), the “IL-13 concentrations in the BAL” value is listed as “reduced”, the “amount of lung remodelling (histopathology grading)” value is given as “reduced” and the Histopathology score is listed as 339.3 ± 45.0% of control. The “IL-4 concentration in the BAL” value in series [2] (day 55, oral gavage 20 days: compound 32 30, budesonide 1, montelukast 10 mg/kg/day) was “reduced”. In addition, at TRPV1 receptor, the inhibition at 3 µM was found to be 47%, the inhibition at 30 µM came out at 40%, the Emax at 3 µM amounted to 22% and the Emax at 30 µM is 21%.
Take `COc1cc(CCC(=O)CC(=O)C(C)(C)C)ccc1O` [Compound 2, 6,6-Dimethyl-1-(4-hydroxy-3-methoxyphenyl)-heptane-3,5-dione]: in series [1], the inhibition at 3 µM was determined as 8% and the inhibition at 30 µM was 79%. For the same molecule, in the series with WI-38 cells (3 μM), the “Decrease in cell viability (%)” value is reported as −2%. In the series on WI-38 cells (30 μM), the “Decrease in cell viability (%)” value turned out to be 4%. The “increase in pulmonary resistance following ovalbumin exposure” value in series [3] (ovalbumin 300 μg/kg i.v. challenge, vehicle control group 228±57%) was 132±15%. The “increase in pulmonary resistance compared with vehicle control” value in series [3] (ovalbumin i.v. challenge) is given as “significantly lower than vehicle control”. In addition, in series [2], the “methacholine-induced increase in penH (enhanced pause)” value is on record as “decreased”, the “eosinophil infiltration into the lung” value is given as “reduced”, the Eosinophil infiltration is on record as 83.0 ± 10.8% of control and the IL-4 concentration was 238.2 ± 57.1% of control. In addition, in series [2], the IL-13 concentration is 183.0 ± 60.9% of control and the “Increase in penH” value is 107.4 ± 21.5% of control. In series [2] (day 55), the “IL-13 concentrations in the BAL” value is on record as “reduced”, the “amount of lung remodelling (histopathology grading)” value is on record as “reduced” and the Histopathology score is reported as 450.0 ± 33.4% of control. For the same molecule, at TRPV1 receptor, the inhibition at 3 µM was -46%, the inhibition at 30 µM is -8%, the Emax at 3 µM is 20% and the Emax at 30 µM was 117%.
As to `COc1cc(CCC(=O)CC(=O)C2(C)CC2)ccc1O` [Compound 6, 5-(4-Hydroxy-3-methoxyphenyl)-1-(1-methylcyclopropyl)-pentane-1,3-dione], in series [1], the inhibition at 3 µM stood at 0% and the inhibition at 30 µM was 34%. Also, the “Decrease in cell viability (%)” value with WI-38 cells (3 μM) is given as 6%. Besides, in the series with WI-38 cells (30 μM), the “Decrease in cell viability (%)” value is 4%. Further, at TRPV1 receptor, the inhibition at 3 µM was determined as 15%, the inhibition at 30 µM came out at 28%, the Emax at 3 µM worked out at 52% and the Emax at 30 µM worked out at 49%.
